Patent US20160067298A1, “MUSCADINE GRAPE SKIN EXTRACT AS TREATMENT FOR BONE METASTATIC CANCER” (Clark Atlanta University, priority 2014, published 2016)
“Also recorded” adds a separate entry of the source. Peptide text beside a SMILES is read from it. * marks the point of attachment. Cbz = O=C(OCc1ccccc1)*

Experiments:
[1] = target: T1, Cathepsin L (CatL) (Homo sapiens, UniProt P07711); experiment: Cathepsin gelatin zymography of conditioned media; format: cell-based; settings: 5 μM Z-FY-CHO, 72 h; vs untreated control
T1 construct: endogenous in cells; host or cells: conditioned media of ARCaP-E Snail, MCF-7 Snail and C4-2 cells
T1 sequence (P07711 114-333): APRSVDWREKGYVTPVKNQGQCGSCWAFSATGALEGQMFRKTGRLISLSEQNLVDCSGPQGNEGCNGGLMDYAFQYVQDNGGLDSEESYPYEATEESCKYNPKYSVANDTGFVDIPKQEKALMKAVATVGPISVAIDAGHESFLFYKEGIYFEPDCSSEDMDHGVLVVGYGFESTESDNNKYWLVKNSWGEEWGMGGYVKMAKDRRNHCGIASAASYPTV
Experimental: We also performed cathepsin zymography to detect cathepsin activity in untreated control and MSKE treatments. ARCaPE and MCF-7 cells over expressing Snail were treated with MSKE for 3 days using the condition media from the […]. With these steps we were able to detect higher CatL activity (enzymes hydrolyze the embedded substrate in situ, and proteolytic activity can be visualized as cleared bands) in cells overexpressing Snail as compared to Neo empty vector control cells.
We utilized the cathepsin zymography technique as previously described. Briefly, 1 mL of conditioned media (CM) containing 0.1 mM leupeptin was concentrated utilizing vivaspin tube (GE Health Care). The concentrated CM was diluted by adding […] of the sample to 45 μl of 1× RIPA buffer followed by determination of the protein concentration using BCA protein assay kit. […] Cathepsin activity was subsequently quantified using densitometry (NIH Image J). […]
(§1) The expression levels of Snail, mature CatL, STAT-3 and Phospho-STAT-3 (pstat-3) were determined with western blot. […] Mature Cathepsin L activity was determined by gelatin zymography. Cathepsin L activity was quantified with densitometry of each band on the gel. […]

[2] = tested on: rat bone cells; settings: by inhibiting collagen degradation; cited from earlier work
[3] = tested on: MCF-7 and ARCaP-E cells over expressing Snail; experiment: In vitro cell invasion assay (Matrigel); format: cell-based, human; settings: 5 μM Z-FY-CHO for 72 hours; invasion 24 hours
Experimental: The invasive properties of the cell lines were measured using the BD BioCoat Matrigel Invasion guidelines. Briefly, Boyden chamber inserts (Thermo Fisher Scientific, Waltham, Mass., USA) were coated with 40 μl 1:4 Matrigel and allowed to solidify at 37° C. for 1 h. 5×10^4 cells were seeded in triplicate in 0.1% FBS, while the lower chamber contained 10% FBS. Cells were allowed to invade through the porous membrane coated with Matrigel at 37° C. for 24-72 h. Inserts were fixed, stained with 0.05% crystal violet. Cell counts were performed for the determination of relative cell invasion.
FIGS. 4C and 4D represent cell invasion of the same cell lines. 5×10^4 cells were plated on transwells coated with Matrigel. Cell invasion was allowed to take place for 24 hours. The number of cells that invaded through the transwell membranes were determined by counting at least 4 random microscopic fields. Compared to neo empty vector cells overexpressing Snail represent an increase in migration and invasion. MSKE and Z-FY-CHO decrease migratory and invasive cells. Asterisks represent p-value of statistical significance (n=3, ***p<0.001, **p<0.01, *p<0.05). Values were normalized to untreated controls and the mean±SEM of data were obtained from three independent replicate experiments with at least three wells per treatment group in each individual replicate. Statistical analysis was done with Student t test.

[4] = tested on: mature CatL; experiment: Western blot analysis, mature CatL; format: cell-based, human; settings: 5 μM Z-FY-CHO, 72 h
Experimental: (§2) We also performed Western blot analysis of whole cell lysates obtained from untreated control and MSKE treatments. ARCaPE and MCF-7 cells over expressing Snail were treated with MSKE for 3 days, and probed for Snail, phosph-STAT-3 (p-STAT3), and […] Western blot analysis.
(§3) Cells were lysed in a modified RIPA buffer (50 mM Tris pH 8.0, 150 mM NaCl, 0.02% NaN3, 0.1% SDS, 1% NP-40, 0.5% sodium deoxycholate) containing 1.5× protease inhibitor cocktail, 1 mM phenylmethylsufonyl fluoride (PMSF), and 1 mM sodium orthovanadate. Whole cell lysates were freeze-thawed at −80° C./4° C. for three cycles, then centrifuged at 13,000 rpm for 30 min at 4° C. Supernatants were collected and quantified using a micro BCA assay (Promega, Madison, Wis.). 40 μg of cell lysate was resolved using 10% SDS PAGE, followed by transblotting onto nitrocellulose membrane (Bio-Rad Laboratories, Hercules, Calif.). Membranes were blocked with 3% milk (TBS-T containing 3% milk), then washed and incubated with primary antibody dilution buffer. […]
as §1

[5] = tested on: MCF-7 and ARCaP-E cells over expressing Snail; experiment: In vitro cell migration assay (collagen I transwell); format: cell-based, human; settings: 5 μM Z-FY-CHO for 72 hours; migration 5 hours
Experimental: We utilized Costar 24-well plates containing a polycarbonate filter insert with an 8-μm pore size, to coat with 4.46 μg/μl rat tail collagen I on the outside for 24 h at 4° C. 5×10^4 cells were plated in the upper chamber containing RPMI supplemented with 0.1% fetal bovine serum (FBS) while the lower chamber contained RPMI supplemented with 10% FBS. After 5 h, cells that migrated to the bottom of the insert were fixed, stained with 0.05% crystal violet, and counted to obtain the relative cell migration.
FIGS. 4A and 4B show MCF-7 and ARCaP-E cells over expressing Snail treated with 5 μg/mL, 20 μg/mL Muscadine Grape Skin Extract (MSKE) and 5 μM Z-FY-CHO for 72 hours. 5×10^4 cells were plated on transwell coated with Type-I collagen as described in the materials and methods section. The cells were allowed to migrate for 5 hours and then fixed and stained. The number of cells that migrated through the transwell membranes was determined by counting at least 4 random microscopic fields.

[6] = tested on: ARCaP-Snail/MCF-7 Snail co-cultured with spleen macrophages; experiment: In vitro osteoclastogenesis assay (TRAP staining of mature osteoclasts); format: cell-based, human; settings: vs untreated control
Experimental: We obtained MSKE from Dr Tamaro Hudson, our collaborator from Howard University and used it to perform osteoclastogenesis assay on prostate and breast cancer cell lines, including one in which Snail, a transcription factor, is overexpressed. 3×10^3 ARCaP-Neo/MCF-7 Neo or ARCaP-Snail/ MCF-7 Snail was co-cultured with 40×10^4 spleen macrophages in 48-well plates plus 1 ng/ml M-CSF plus or minus 5 μg/ml MSKE, 20 μg/ml MSKE, and 5 μM Z-FY-CHO CatL inhibitor.
The cells were fed every three days by replacing half the media with fresh media plus or minus MSKE or Z-FY-CHO. Macrophages alone were utilized as a negative control. After 7-14 days the cells were fixed with 3% formaldehyde and processed for TRAP staining according to manufacturer instructions, to visualize the formation of mature osteoclasts.
3×10^3 ARCaP-Neo/MCF-7 Neo or ARCaP-Snail/MCF-7 Snail was co-cultured with 40×10^4 spleen macrophages in 48-well plates plus 1 ng/ml M-CSF plus or minus 5 μg/mL MSKE, 20 μg/mL MSKE or […] Z-FY-CHO Cat L inhibitor. […]
3×10^3 or 1×10^3 prostate cancer cells overexpressing Snail (see FIG. 5) and breast cancer cells overexpressing Snail (FIG. 6) were co-cultured with 40×10^4 Macrophages for 14 days and treated with 50 ng/mL osteoprotogerin (control), 5 μM Z-FY-CHO, 5 μg/mL or 20 μg/ML MSKE. […] Osteoclasts were determined by having 3 or more nuclei (FIGS. 5 and 6 insets). […]

[7] = tested on: Snail; experiment: Western blot analysis, Snail; format: cell-based, human; settings: 5 μM Z-FY-CHO, 72 h
Experimental: as §2, §3, §1

[8] = tested on: p-STAT-3; experiment: Western blot analysis, phospho-STAT-3; format: cell-based, human; settings: 5 μM Z-FY-CHO, 72 h
Experimental: as §2, §3, §1

Molecule: O=C[C@H](Cc1ccc(O)cc1)NC(=O)[C@H](Cc1ccccc1)NC(=O)OCc1ccccc1 [Z-FY-CHO] (Cbz-Phe-Tyr-aldehyde)
- amount of active CatL (CatL activity) [1]: significantly decreased; also recorded: decrease
- bone resorption [2]: inhibit
- cell invasion [3]: abrogated; also recorded: decrease
- Cat L expression [4]: decrease
- cell migration [5]: abrogated; also recorded: decrease
- formation of osteoclasts ([6]; 5 μM Z-FY-CHO, prostate and breast cancer cells overexpressing Snail co-cultured with macrophages): significantly decrease; also recorded: significantly abrogated
- Snail expression [7]: decrease
- STAT-3 activation (p-STAT-3) [8]: decrease

B1: OPG: Osteoprotegerin, decoy receptor that binds RANKL; used as control in osteoclastogenesis assay (protein, UniProt O00300 22-401, looked up)
Tumor necrosis factor …: ETFPPKYLHYDEETSHQLLCDKCPPGTYLKQHCTAKWKTVCAPCPDHYYTDSWHTSDECLYCSPVCKELQYVKQECNRTHNRVCECKEGRYLEIEFCLKHRSCPPGFGVVQAGTPERNTVCKRCPDGFFSNETSSKAPCRKHTNCSVFGLLLTQKGNATHDNICSGNSESTQKCGIDVTLCEEAFFRFAVPTKFTPNWLSVLVDNLPGTKVNAESVERIKRQHSSQEQTFQLLKLWKHQNKDQDIVKKIIQDIDLCENSVQRHIGHANLTFEQLRSLMESLPGKKVGAEDIEKTIKACKPSDQILKLLSLWRIKNGDQDTLKGLMHALKHSKTYHFPKTVTQSLKKTIRFLHSFTMYKLYQKLFLEMIGNQVQSVKISCL
- formation of osteoclasts ([6]; 50 ng/ml OPG): significantly decreased
